Experimental data reported in US20250059188A1, “ARYLSULPHONAMIDE COMPOUNDS” (Anaxis Pharma Pty Ltd, priority 2021, published 2025).

How the values were obtained:
human MLKL (full length) = human MLKL (full length) (Homo sapiens (Human), UniProt Q8NB16); experiment: KINOMEscan binding assay, human MLKL (full length); settings: equilibrium dissociation constant
Summary of the method: (§1)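 Kd values come from dose-response fits to the Hill equation (Hill slope −1, Levenberg–Marquardt least squares). Compound competed with bead-bound ligand for tagged kinase, and remaining kinase was measured by qPCR after elution. Dilution series: 11 points, 3-fold, 1% DMSO final, top 30,000 nM in most runs.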

human RIPK3 = human RIPK3 (Homo sapiens (Human), UniProt Q9Y572); experiment: KINOMEscan binding assay, human RIPK3; settings: equilibrium dissociation constant
Summary of the method: as §1

U937 cells = experiment: Counter screen: U937 cell viability without TSQ cocktail (off-target effect); parameters: species or system human; settings: Homo sapiens, U-937, compound without TSQ cocktail, read-out: Off-target effect (IC50 cell-based assay)
Summary of the method: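 Off-target viability counter screen: compounds titrated 36 μM down 1:3 over 10 points (0.3% DMSO) on 20,000 U937 cells/well, no TNF/Smac mimetic/Q-VD-OPh added, 48 h incubation. ATP-based CellTiter-Glo luminescence, four-parameter logistic IC50.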

human RIPK1 = human RIPK1 (Homo sapiens (Human), UniProt Q13546); experiment: KINOMEscan binding assay, human RIPK1; settings: equilibrium dissociation constant
Summary of the method: as §1

[1] = system: U937 human histiocytic leukemia cell line; experiment: Inhibition of TSQ induced necroptosis in U937 cells (CellTitre-Glo); settings: Homo sapiens, U-937, TSQ cocktail (TNF, Smac mimetic, Q-VD-OPh), 48 hours, read-out: Inhibition of TSQ-induced necroptosis (IC50 cell-based assay)
Summary of the method: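 Necroptosis was induced with TNF-Fc (100 ng/ml), Smac mimetic (500 nM) and Q-VD-OPh (10 μM) in 20000 U937 cells/well exposed to a 10-point, 3-fold compound series (top 36 μM, 0.3% DMSO). ATP luminescence read after 48 h; 4-parameter fit gave IC50. Parallel TSQ-free wells assessed compound toxicity.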

Sequence of human MLKL (full length) (Q8NB16 whole entry): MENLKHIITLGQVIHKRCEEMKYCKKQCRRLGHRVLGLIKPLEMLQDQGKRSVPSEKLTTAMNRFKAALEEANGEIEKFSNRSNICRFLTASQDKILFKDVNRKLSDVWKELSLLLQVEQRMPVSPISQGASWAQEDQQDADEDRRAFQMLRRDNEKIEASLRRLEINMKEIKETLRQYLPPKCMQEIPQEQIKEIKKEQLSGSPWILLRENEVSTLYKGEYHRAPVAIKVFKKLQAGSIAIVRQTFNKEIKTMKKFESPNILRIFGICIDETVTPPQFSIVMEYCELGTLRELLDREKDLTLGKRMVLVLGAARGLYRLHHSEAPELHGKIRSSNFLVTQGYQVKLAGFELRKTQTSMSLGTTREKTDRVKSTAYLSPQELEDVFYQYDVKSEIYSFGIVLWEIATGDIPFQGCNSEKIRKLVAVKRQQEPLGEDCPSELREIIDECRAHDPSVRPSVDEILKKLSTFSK
Sequence of human RIPK1 (Q13546 whole entry): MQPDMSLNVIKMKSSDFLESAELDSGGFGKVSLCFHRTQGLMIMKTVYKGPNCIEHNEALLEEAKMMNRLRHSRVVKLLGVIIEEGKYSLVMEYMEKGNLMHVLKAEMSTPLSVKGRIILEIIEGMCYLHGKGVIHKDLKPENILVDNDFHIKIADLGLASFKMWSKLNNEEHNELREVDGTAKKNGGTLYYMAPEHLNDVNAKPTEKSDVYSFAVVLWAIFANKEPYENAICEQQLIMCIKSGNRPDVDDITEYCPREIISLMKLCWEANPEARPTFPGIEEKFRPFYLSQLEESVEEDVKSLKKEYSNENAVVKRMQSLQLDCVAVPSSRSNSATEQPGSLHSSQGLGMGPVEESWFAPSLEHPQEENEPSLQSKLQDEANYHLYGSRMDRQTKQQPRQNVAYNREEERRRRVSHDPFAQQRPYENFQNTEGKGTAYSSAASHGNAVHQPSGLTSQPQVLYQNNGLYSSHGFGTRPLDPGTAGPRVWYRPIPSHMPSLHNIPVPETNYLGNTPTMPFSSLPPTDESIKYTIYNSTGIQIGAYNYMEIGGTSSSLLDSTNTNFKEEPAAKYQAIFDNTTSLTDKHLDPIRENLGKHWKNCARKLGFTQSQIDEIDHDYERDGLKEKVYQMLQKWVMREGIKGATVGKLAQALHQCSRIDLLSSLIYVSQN
Sequence of human RIPK3 (Q9Y572 whole entry): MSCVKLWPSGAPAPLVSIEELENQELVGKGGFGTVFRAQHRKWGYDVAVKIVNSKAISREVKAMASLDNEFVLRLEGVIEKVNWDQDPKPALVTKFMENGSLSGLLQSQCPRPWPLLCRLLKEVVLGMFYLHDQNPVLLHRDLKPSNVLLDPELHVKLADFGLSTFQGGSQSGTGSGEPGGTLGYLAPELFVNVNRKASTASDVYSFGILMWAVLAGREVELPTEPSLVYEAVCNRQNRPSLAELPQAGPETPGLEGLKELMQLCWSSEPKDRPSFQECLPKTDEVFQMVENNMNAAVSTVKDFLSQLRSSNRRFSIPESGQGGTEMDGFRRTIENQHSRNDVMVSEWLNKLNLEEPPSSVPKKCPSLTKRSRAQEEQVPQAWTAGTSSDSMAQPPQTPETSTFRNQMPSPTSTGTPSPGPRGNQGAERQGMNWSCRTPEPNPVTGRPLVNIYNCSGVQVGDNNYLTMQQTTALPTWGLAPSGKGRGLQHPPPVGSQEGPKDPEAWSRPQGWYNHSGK

Kd (human MLKL (full length)) [µM]	Kd (human RIPK3) [µM]	Kd (human RIPK1) [µM]	SMILES	IC50 (U937 cells) [µM]	IC50 [1] [µM]
0.001 to 0.1	> 10	> 10	C[C@H](Oc1cc(-c2nn(C)c3c(-c4cc(C#N)n(C)c4)cnc(N)c23)ccc1NS(=O)(=O)C(F)F)c1ccc(F)cc1 [Compound 83, (S)-N-(4-(4-amino-7-(5-cyano-1-methyl-1H-pyrrol-3-yl)-1-methyl-1H-pyrazolo[4,3-c]pyridin-3-yl)-2-(1-(4-fluorophenyl)ethoxy)phenyl)-1,1-difluoromethanesulfonamide]	> 10	0.01 to 1
0.001 to 0.1	> 10	> 10	C[C@H](Oc1cc(-c2nn(C)c3c(-c4cccc(Cl)c4)cnc(N)c23)ccc1NS(=O)(=O)C(F)F)c1ccc(F)cc1 [Compound 84, (S)-N-(4-(4-amino-7-(3-chlorophenyl)-1-methyl-1H-pyrazolo[4,3-c]pyridin-3-yl)-2-(1-(4-fluorophenyl)ethoxy)phenyl)-1,1-difluoromethanesulfonamide]	> 10	1 to 10
0.001 to 0.1	> 10	> 10	C[C@H](Oc1cc(-c2nn(C)c3c(-c4ccccc4Cl)cnc(N)c23)ccc1NS(=O)(=O)C(F)F)c1ccc(F)cc1 [Compound 85, (S)-N-(4-(4-amino-7-(2-chlorophenyl)-1-methyl-1H-pyrazolo[4,3-c]pyridin-3-yl)-2-(1-(4-fluorophenyl)ethoxy)phenyl)-1,1-difluoromethanesulfonamide]	> 10	1 to 10
0.001 to 0.1	> 10	> 10	C[C@H](Oc1cc(-c2nn(C)c3c(-c4ccccc4)cnc(N)c23)ccc1NS(=O)(=O)C(F)F)c1ccc(F)cc1 [Compound 86, (S)-N-(4-(4-amino-1-methyl-7-phenyl-1H-pyrazolo[4,3-c]pyridin-3-yl)-2-(1-(4-fluorophenyl)ethoxy)phenyl)-1,1-difluoromethanesulfonamide]	> 10	0.01 to 1
0.001 to 0.1	> 10	> 10	C[C@H](Oc1cc(-c2nn(C)c3c(-c4ccc(Cl)cc4)cnc(N)c23)ccc1NS(=O)(=O)C(F)F)c1ccc(F)cc1 [Compound 87, (S)-N-(4-(4-amino-7-(4-chlorophenyl)-1-methyl-1H-pyrazolo[4,3-c]pyridin-3-yl)-2-(1-(4-fluorophenyl)ethoxy)phenyl)-1,1-difluoromethanesulfonamide]	> 10	1 to 10
< 0.001	> 10	> 10	C[C@H](Oc1cc(-c2nn(C)c3c(-c4cnn(CC5CCCN5)c4)cnc(N)c23)ccc1NS(=O)(=O)C(F)F)c1ccc(F)cc1 (stereo partly drawn) [Compound 88, N-(4-(4-amino-1-methyl-7-(1-(pyrrolidin-2-ylmethyl)-1H-pyrazol-4-yl)-1H-pyrazolo[4,3-c]pyridin-3-yl)-2-((S)-1-(4-fluorophenyl)ethoxy)phenyl)-1,1-difluoromethanesulfonamide]	> 10	0.01 to 1
< 0.001	> 10	> 10	C[C@H](Oc1cc(-c2nn(C)c3c(-c4cnn(C5(CN)CC5)c4)cnc(N)c23)ccc1NS(=O)(=O)C(F)F)c1ccc(F)cc1 [Compound 89, (S)—N-(4-(4-amino-7-(1-(1-(aminomethyl)cyclopropyl)-1H-pyrazol-4-yl)-1-methyl-1H-pyrazolo[4,3-c]pyridin-3-yl)-2-(1-(4-fluorophenyl)ethoxy)phenyl)-1,1-difluoromethanesulfonamide]	> 10	0.01 to 1
< 0.001	> 10	> 10	C[C@H](Oc1cc(-c2nn(C)c3c(-c4cnn(C5CN(C)C5)c4)cnc(N)c23)ccc1NS(=O)(=O)C(F)F)c1ccc(F)cc1 [Compound 92, (S)-N-(4-(4-amino-1-methyl-7-(1-(1-methylazetidin-3-yl)-1H-pyrazol-4-yl)-1H-pyrazolo[4,3-c]pyridin-3-yl)-2-(1-(4-fluorophenyl)ethoxy)phenyl)-1,1-difluoromethanesulfonamide]	> 10	0.01 to 1
